How the values were obtained:
[1] = system: Immortalized Human Gingival Fibroblasts-hTERT (iHGF); test: Metabolic activity (PrestoBlue cell viability) after UVA irradiation; conditions: 24 h after irradiation and after 7 days of culture and treatment
Method: Immortalized Human Gingival Fibroblasts-hTERT (iHGF) (Applied Biological Materials Inc) were used for the experiments. Cells were grown at 37 °C in an atmosphere of 5% CO2 using complete fibroblast cell culture medium that consists in Dulbecco's modified Eagle's medium (DMEM) low glucose (Biowest)/Ham's F12 (3/1) (Biowest), supplemented with 10% (v/v) fetal bovine serum embryonic stem cells tested (FBS) (Biowest), 100 g/mL penicillin and 100 g/mL streptomycin (Biowest).
iHGF were seeded (7 000 cells/well) in 96-well plates (white and transparent tissue culture test-plates) and at confluence, cells were treated with different concentrations (0.1; 1; 10; 50; 75 and 100 µM) of Pteroyouth®, pterostilbene or silybin in complete fibroblast cell culture medium as described above. […] To measure cell viability, cell culture media and treatments were added again to the cells and metabolic activity was measured 24 h after irradiation. […] Cell viability was determined again at day 7, and cell monolayer was used to quantify collagen deposition. […]
Total metabolic activity was evaluated using the PrestoBlue™ Cell Viability Reagent (Invitrogen, Catalog Number A13261; Life Technologies, Carlsbad, CA, USA), which is used to measure the metabolic activity of cells, being an indicator of their overall health and functionality. […]

[2] = system: Immortalized Human Gingival Fibroblasts-hTERT (iHGF); test: Total collagen deposition (Sirius red staining) after UVA irradiation; format: cell-based; conditions: 7 days after irradiation and treatment
Method: Collagen deposition was determined according to Walsh et al 1992. […] Collagen was stained with Sirius red F3BA 0.1% in saturated picric acid for 1 hour. Unbound dye was removed by washing with 10 mM HCl, and dye was solubilized with 100 mM NaOH. Absorbance was measured with a microplate reader at 540 nm. Non-treated cells were set as 100%.

Row | Compound | metabolic activity (cell viability) ([1]; 0.1 µM) | metabolic activity (cell viability) ([1]; 1 µM) | total collagen deposition compared to both C and CuVA ([2]; 1 µM) | total collagen deposition compared to both C and CuVA ([2]; 0.1 µM) | total collagen deposition compared to both C and CuVA ([2]; 10 µM)
1 | COc1cc(/C=C/c2ccc(O)cc2)cc(OC)c1 [pterostilbene, trans-3,5-dimethoxy-4-hydroxystilbene] | maintain cell viability | maintain cell viability | higher collagen deposition |  | 
2 | COc1cc(C2Oc3cc([C@H]4Oc5cc(O)cc(O)c5C(=O)[C@@H]4O)ccc3OC2CO)ccc1O (stereo partly drawn) [silybin] |  |  | higher collagen deposition | higher collagen deposition | higher collagen deposition
